These results are taken from ChEMBL document CHEMBL1129308, “Design and synthesis of 2-naphthoate esters as selective dopamine D4 antagonists” (J Med Chem, 1996).

One assay deals with D(2) dopamine receptor (Homo sapiens, UniProt P14416). The experiment in a line: Binding affinity against cloned human Dopamine receptor D2 (long) using [125I]iodosulpiride as radioligand.
In another assay the target is T1, D(4) dopamine receptor (Homo sapiens, UniProt P21917).
T1 sequence (P21917 whole entry): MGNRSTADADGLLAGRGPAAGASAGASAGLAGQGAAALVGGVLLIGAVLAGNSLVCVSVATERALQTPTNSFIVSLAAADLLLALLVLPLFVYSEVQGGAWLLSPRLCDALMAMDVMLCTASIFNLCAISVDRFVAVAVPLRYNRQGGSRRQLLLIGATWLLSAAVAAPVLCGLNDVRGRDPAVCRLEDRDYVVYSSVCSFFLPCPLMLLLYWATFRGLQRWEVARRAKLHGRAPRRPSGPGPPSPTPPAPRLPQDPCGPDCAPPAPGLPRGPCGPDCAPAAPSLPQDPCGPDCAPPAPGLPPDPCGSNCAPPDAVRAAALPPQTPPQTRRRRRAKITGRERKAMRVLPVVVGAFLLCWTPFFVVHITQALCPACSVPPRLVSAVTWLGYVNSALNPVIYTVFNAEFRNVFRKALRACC
The experiment in a line: Binding affinity against cloned human Dopamine receptor D4 using [3H]nemonapride as radioligand.

Assay [1] has as its target Dopamine receptors; D2 & D4 (Homo sapiens) (UniProt P14416+P21917). Put plainly: Selectivity ratio for binding affinity between D4 and D2 receptor. Format: protein assay.

pKi: −log10 of the molar value.

D(2) dopamine receptor, sequence (P14416 whole entry): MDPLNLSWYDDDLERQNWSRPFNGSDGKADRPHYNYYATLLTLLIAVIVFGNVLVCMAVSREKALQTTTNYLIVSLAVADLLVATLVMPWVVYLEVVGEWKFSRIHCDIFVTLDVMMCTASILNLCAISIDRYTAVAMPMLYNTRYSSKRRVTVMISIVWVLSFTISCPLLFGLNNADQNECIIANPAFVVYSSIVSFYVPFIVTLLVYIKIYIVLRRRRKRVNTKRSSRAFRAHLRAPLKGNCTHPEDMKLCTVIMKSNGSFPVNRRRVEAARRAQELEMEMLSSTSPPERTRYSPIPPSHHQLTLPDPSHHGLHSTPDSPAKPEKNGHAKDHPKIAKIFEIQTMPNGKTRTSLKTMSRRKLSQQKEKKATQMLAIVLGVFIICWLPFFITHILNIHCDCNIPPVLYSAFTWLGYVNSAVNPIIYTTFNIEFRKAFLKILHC
Dopamine receptors; D2 & D4 (Homo sapiens), sequence (P14416 whole entry, looked up, one chain of several): as the sequence (P14416 whole entry) above

As for `COc1cc2ccccc2cc1C(=O)NCC1CCN(Cc2ccccc2)CC1`, the pKi (as a rule, −log10 of the Ki, conventionally taken in molar units) is 6.90 at D(2) dopamine receptor and 7.70 on D(4) dopamine receptor. The Selectivity in assay [1] came out at 6.

In the case of `COc1cc2ccccc2cc1OCCC1CCN(Cc2ccccc2)CC1`, the pKi on D(2) dopamine receptor is 5.80; on D(4) dopamine receptor it was 7.60. Besides, the Selectivity in assay [1] was 60.

As for `COc1cc2ccccc2cc1C(=O)OCC1CCN(Cc2ccccc2)C1` (stereo not given), the pKi was 5.00 at D(2) dopamine receptor and 7.70 on D(4) dopamine receptor. Moreover, the Selectivity in assay [1] is 500.

For `COc1cc2ccccc2cc1CC(=O)CC1CCN(Cc2ccccc2)CC1`, the values for the pKi on D(2) dopamine receptor and at D(4) dopamine receptor were 5.90 and 6.70, respectively. In addition, the Selectivity in assay [1] amounted to 6.

Consider `COc1cc2ccccc2cc1C(=O)OCC1CCN(Cc2ccccc2)CC1`, for which the pKi on D(2) dopamine receptor is 5.50; on D(4) dopamine receptor, 8.30. The Selectivity in assay [1] was determined as 630.

With `COc1cc2ccccc2cc1C(=O)CCC1CCN(Cc2ccccc2)CC1`, the figures for the pKi on D(2) dopamine receptor and at D(4) dopamine receptor were 6.40 and 7.50, respectively. In assay [1], the Selectivity stood at 12.

On to `COc1cc2ccccc2cc1COCC1CCN(Cc2ccccc2)CC1`, for which the pKi was 6.00 at D(2) dopamine receptor and 7.50 on D(4) dopamine receptor. For the same compound, the Selectivity in assay [1] came to 30.

Take `COc1cc2ccccc2cc1OC(=O)CC1CCN(Cc2ccccc2)CC1`: the pKi on D(2) dopamine receptor is 5.10; on D(4) dopamine receptor, 8.20. For the same compound, the Selectivity in assay [1] was determined as 1260.

As to `O=C(OCC1CCN(Cc2ccccc2)CC1)c1ccc(Cl)cc1`, the pKi on D(2) dopamine receptor was 5.70; at D(4) dopamine receptor, 7.60. Besides, the Selectivity in assay [1] stood at 80.

With `COc1cc2ccccc2cc1C(=O)NC1CCN(Cc2ccccc2)C1` (stereo not given), the pKi is 7.40 on D(2) dopamine receptor and 8.40 on D(4) dopamine receptor. The Selectivity in assay [1] is 10.
